In patent US9821004B2, “Inhibition of a lncRNA for treatment of melanoma” (VIB VZW, priority 2013, dated 2017):

Legend:
[1] = tested on: BRAFV600E-positive melanomas; conditions: patients with BRAFV600E-positive melanomas; cited from earlier work
[2] = tested on: BRAFV600E human melanoma cell line; test: Apoptosis (Annexin-5-positive cells by FACS) after gapmer transfection plus BRAFV600E-inhibitor; assay type: cell-based; conditions: gapmer 3 transfection; 24 hours after exposure to the BRAFV600E-inhibitor, 48 hours after transfection, FIG. 16
Description: Apoptosis was measured by quantification of Annexin-5-positive cells by FACS 24 hours after exposure to the BRAFV600E-inhibitor (and 48 hours after transfection). Representative pictures of the cells are shown.
Importantly, knock-down of LINC01212 sensitizes BRAFV600E-melanoma cells to a BRAF-inhibitor currently used in the clinic, […] (FIG. 16).

CCCS(=O)(=O)Nc1ccc(F)c(C(=O)c2c[nH]c3ncc(-c4ccc(Cl)cc4)cc23)c1F [PLX4032]
anti-tumor response rate [1]: 80% | sensitization of BRAFV600E-melanoma cells to BRAF-inhibitor by LINC01212 knock-down (apoptosis) [2]: sensitizes
